# Measured values taken from ChEMBL document CHEMBL3868595, “Plazomicin is effective in a non-human primate pneumonic plague model” (Bioorg Med Chem, 2016).
# Tests used:
# [1] = system: African green monkey; assay: Toxicity in African green monkey B6127 model infected with Yersinia pestis Colorado 92 assessed as elevation of blood urea nitrogen at 25 mg/kg, iv administered within 6 hrs post onset of sustained fever as 30 mins infusion for 10 days; assay type: organism-based; conditions: chlorocebus sabaeus, in vivo
# [2] = system: African green monkey; assay: Toxicity in African green monkey 7972 model infected with Yersinia pestis Colorado 92 assessed as blood urea nitrogen level at 25 mg/kg, iv administered within 6 hrs post onset of sustained fever as 30 mins infusion for 10 days (reference value: 13 mg/dl); assay type: organism-based; conditions: chlorocebus sabaeus, in vivo
# [3] = system: African green monkey; assay: Toxicity in African green monkey 7653 model infected with Yersinia pestis Colorado 92 assessed as serum alanine aminotransferase level at 25 mg/kg, iv administered within 6 hrs post onset of sustained fever as 30 mins infusion for 10 days (reference value: 50 IU/L); assay type: organism-based; conditions: chlorocebus sabaeus, in vivo
# [4] = system: African green monkey; assay: Toxicity in African green monkey B6127 model infected with Yersinia pestis Colorado 92 assessed as weight loss at 25 mg/kg, iv administered within 6 hrs post onset of sustained fever as 30 mins infusion for 10 days measured from day 7 to 14 post dose; assay type: organism-based; conditions: chlorocebus sabaeus, in vivo
# [5] = system: African green monkey; assay: Toxicity in African green monkey 7643 model infected with Yersinia pestis Colorado 92 assessed as serum gamma glutamyl-transferase level at 25 mg/kg, iv administered within 6 hrs post onset of sustained fever as 30 mins infusion for 10 days (reference value: 44 IU/L); assay type: organism-based; conditions: chlorocebus sabaeus, in vivo
# [6] = Clearance in African green monkey blood at 35 mg/kg administered as iv infusion twice daily for 7 consecutive days measured on day 7 by LC-MS/MS analysis; assay type: ADME, organism-based; conditions: chlorocebus aethiops
# [7] = system: African green monkey; assay: Toxicity in African green monkey assessed as effect on serum creatinine level at 35 mg/kg administered as iv infusion twice daily for 7 consecutive days measured on day 7 by LC-MS/MS analysis; assay type: organism-based; conditions: chlorocebus sabaeus, in vivo
# [8] = system: Yersinia pestis; assay: Antibacterial activity against Yersinia pestis Colorado 92 infected in African green monkey B6889 model assessed as bacterial burden in kidney at 6.25 mg/kg, iv administered within 6 hrs post onset of sustained fever as 30 mins infusion for 5 days (reference value: 7.1 10^7CFU/g); assay type: functional, CO92
# [9] = system: Yersinia pestis; assay: Antibacterial activity against Yersinia pestis Colorado 92 infected in African green monkey B6872 model assessed as bacterial burden in tracheobronchial lymph nodes at 25 mg/kg, iv administered within 6 hrs post onset of sustained fever as 30 mins infusion for 5 days (reference value: 7.7 10^9CFU/g); assay type: functional, organism-based; conditions: CO92, Lymph node
# [10] = system: African green monkey; assay: Toxicity in African green monkey B6428 model infected with Yersinia pestis Colorado 92 assessed as serum lactate dehydrogenase level at 25 mg/kg, iv administered within 6 hrs post onset of sustained fever as 30 mins infusion for 10 days (reference value: 238 IU/L); assay type: organism-based; conditions: chlorocebus sabaeus, in vivo
# [11] = system: Yersinia pestis; assay: Antibacterial activity against Yersinia pestis Colorado 92 infected in African green monkey B6436 model assessed as bacterial burden in spleen at 25 mg/kg, iv administered within 6 hrs post onset of sustained fever as 30 mins infusion for 5 days (reference value: 1.6 10^9CFU/g); assay type: functional, organism-based; conditions: CO92
# [12] = system: Yersinia pestis; assay: Antibacterial activity against Yersinia pestis Colorado 92 infected in African green monkey B6672 model assessed as bacterial burden in lung at 12.5 mg/kg, iv administered within 6 hrs post onset of sustained fever as 30 mins infusion for 5 days (reference value: 7.7 10^8CFU/g); assay type: functional, CO92
# [13] = system: African green monkey; assay: Toxicity in African green monkey B6428 model infected with Yersinia pestis Colorado 92 assessed as serum gamma glutamyl-transferase level at 25 mg/kg, iv administered within 6 hrs post onset of sustained fever as 30 mins infusion for 10 days (reference value: 31 IU/L); assay type: organism-based; conditions: chlorocebus sabaeus, in vivo
# [14] = system: Yersinia pestis; assay: Antibacterial activity against Yersinia pestis Colorado 92 infected in African green monkey B6960 model assessed as bacterial burden in kidney at 6.25 mg/kg, iv administered within 6 hrs post onset of sustained fever as 30 mins infusion for 5 days (reference value: 7.1 10^7CFU/g); assay type: functional, CO92
# [15] = system: Yersinia pestis; assay: Antibacterial activity against Yersinia pestis Colorado 92 infected in African green monkey B6415 model assessed as bacterial burden in lung at 25 mg/kg, iv administered within 6 hrs post onset of sustained fever as 30 mins infusion for 5 days (reference value: 7.7 10^8CFU/g); assay type: functional, CO92
# [16] = system: African green monkey; assay: Toxicity in African green monkey 8067 model infected with Yersinia pestis Colorado 92 assessed as serum alanine aminotransferase level at 25 mg/kg, iv administered within 6 hrs post onset of sustained fever as 30 mins infusion for 10 days (reference value: 45 IU/L); assay type: organism-based; conditions: chlorocebus sabaeus, in vivo
# [17] = system: Yersinia pestis; assay: Antibacterial activity against Yersinia pestis Colorado 92 infected in African green monkey B6469 model assessed as bacterial burden in kidney at 25 mg/kg, iv administered within 6 hrs post onset of sustained fever as 30 mins infusion for 5 days (reference value: 7.1 10^7CFU/g); assay type: functional, organism-based; conditions: CO92
# [18] = system: Yersinia pestis; assay: Antibacterial activity against Yersinia pestis Colorado 92 infected in African green monkey B6127 model assessed as bacterial burden in blood at 25 mg/kg, iv administered within 6 hrs post onset of sustained fever as 30 mins infusion for 10 days (reference value: 1.2 10^7CFU/ml); assay type: functional, organism-based; conditions: CO92
# [19] = system: Yersinia pestis; assay: Antibacterial activity against Yersinia pestis Colorado 92 infected in African green monkey B6783 model assessed as bacterial burden in spleen at 12.5 mg/kg, iv administered within 6 hrs post onset of sustained fever as 30 mins infusion for 5 days (reference value: 1.6 10^9CFU/g); assay type: functional, CO92
# [20] = system: Yersinia pestis; assay: Antibacterial activity against Yersinia pestis Colorado 92 infected in African green monkey B6873 model assessed as bacterial burden in blood at 12.5 mg/kg, iv administered within 6 hrs post onset of sustained fever as 30 mins infusion for 5 days (reference value: 1.2 10^7CFU/ml); assay type: functional, organism-based; conditions: CO92
# [21] = system: Yersinia pestis; assay: Antibacterial activity against Yersinia pestis Colorado 92 infected in African green monkey C2149 model assessed as bacterial burden in spleen at 6.25 mg/kg, iv administered within 6 hrs post onset of sustained fever as 30 mins infusion for 5 days (reference value: 1.6 10^9CFU/g); assay type: functional, CO92
# [22] = system: Yersinia pestis; assay: Antibacterial activity against Yersinia pestis Colorado 92 infected in African green monkey B6106 model assessed as bacterial burden in brain at 25 mg/kg, iv administered within 6 hrs post onset of sustained fever as 30 mins infusion for 5 days (reference value: 1.9 10^6CFU/g); assay type: functional, CO92
# [23] = Clearance in African green monkey blood at 25 mg/kg administered as iv infusion twice daily for 7 consecutive days measured on day 1 by LC-MS/MS analysis; assay type: ADME, organism-based; conditions: chlorocebus aethiops
# [24] = system: Yersinia pestis; assay: Antibacterial activity against Yersinia pestis Colorado 92 infected in African green monkey B6873 model assessed as bacterial burden in lung at 12.5 mg/kg, iv administered within 6 hrs post onset of sustained fever as 30 mins infusion for 5 days (reference value: 7.7 10^8CFU/g); assay type: functional, CO92
# [25] = system: Yersinia pestis; assay: Antibacterial activity against Yersinia pestis Colorado 92 infected in African green monkey B6889 model assessed as bacterial burden in brain at 6.25 mg/kg, iv administered within 6 hrs post onset of sustained fever as 30 mins infusion for 5 days (reference value: 1.9 10^6CFU/g); assay type: functional, CO92
# [26] = system: Yersinia pestis; assay: Antibacterial activity against Yersinia pestis Colorado 92 infected in African green monkey B6988 model assessed as bacterial burden in spleen at 6.25 mg/kg, iv administered within 6 hrs post onset of sustained fever as 30 mins infusion for 5 days (reference value: 1.6 10^9CFU/g); assay type: functional, CO92
smiles,measurement,setting,value
CN[C@@H]1[C@@H](O)[C@@H](O[C@@H]2[C@@H](O)[C@H](O[C@H]3OC(CNCCO)=CC[C@H]3N)[C@@H](N)C[C@H]2NC(=O)[C@@H](O)CCN)OC[C@]1(C)O [PLAZOMICIN],Activity,[1],Toxic
same,Activity,[2],24 mg/dL
same,Activity,[3],48 IU/L
same,Activity,[4],Toxic
same,Activity,[5],35 IU/L
same,clearance,[6],1.67 mL/min/kg
same,Activity,[7],0.6 mg/dL
same,Activity,[8],1.1 ×10⁶ CFU/g
same,Activity,[9],Below limit of detection
same,Activity,[10],299 IU/L
same,Activity,[11],Below limit of detection
same,Activity,[12],9.2 ×10⁹ CFU/g
same,Activity,[13],27 IU/L
same,Activity,[14],72 CFU/g
same,Activity,[15],3.2 ×10⁹ CFU/g
same,Activity,[16],50 IU/L
same,Activity,[17],Below limit of detection
same,Activity,[18],Below limit of detection
same,Activity,[19],10 CFU/g
same,Activity,[20],Below limit of detection
same,Activity,[21],30 CFU/g
same,Activity,[22],6.4 ×10⁷ CFU/g
same,clearance,[23],2.17 mL/min/kg
same,Activity,[24],16 CFU/g
same,Activity,[25],80 CFU/g
same,Activity,[26],17 CFU/g
